Where two headings read alike, the source gives them in different places. Non-standard residues stand in square brackets, D forms with d. Residues, ends and D or L forms follow the SMILES beside them. Groups on a side chain read outwards from the residue. *: point of attachment. 2Nal = N[C@@H](Cc1ccc2ccccc2c1)C(=O)O; dNMeOrn = CN[C@H](CCCN)C(=O)O; 4Abz = Nc1ccc(C(=O)O)cc1; X1 = NCCNCC(CNCCN)C(=O)*; dDap = NC[C@@H](N)C(=O)O
Legend:
[1] = tested on: CXCR4-expressing Chem_1 cells; assay: Determination of internalization, dual tracer with 125I-Fc-131; type: cell-based; conditions: for Cell-bound [%] / Internalized [%]: of total cellular activity
Summary of the method: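 Receptor blockade used AMD3100 (1 mM stock) versus medium-treated wells, triplicate per time point, in Chem_1 cells cultured at 37 °C in DMEM-F12/10% FBS. Activity of supernatant, surface-bound and internalized (1 M NaOH) fractions measured by γ-counter, corrected for non-specific uptake and normalised to standard ligand.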

CXCR4 [2] = target: T1, CXCR4 (Homo sapiens, UniProt P61073); assay: Determination of IC50: competition with 125I-Fc-131 on CXCR4-positive Jurkat cells; type: binding; parameters: CXCR4-positive Jurkat T lymphocyte cells were grown in Gibco's RPMI 1640 GlutaMAX medium; endogenous in cells; host or cells: Jurkat T lymphocyte cells (whole cells in suspension, 400.000 per tube);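 also: test compound at 10^−5 to 10^−11 M competed for 2 h at 8 °C with the radioligand on 400,000 cells per well, bound versus free activity measured by γ-counting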
[3] = Octanol/PBS partition coefficient (logD7.4); type: physicochemical; conditions: n-octanol/PBS pH 7.4, radiolabeled compound
Procedure: The tubes were vortexed at maximum speed for 3 min to ensure equilibrium before centrifugation at 15.000×g for 5 min on a Biofuge 15 from Heraeus Holding GmbH (Osterode, Germany). An aliquot of 100 μL of each fraction was measured in the γ-counter and the log D7.4 calculated as follows: […]

U2932 cells [4] = conditions: 72 h, increasing amounts of PDC
Procedure: For that purpose, cells were fixed, permeabilized and treated with propidium iodide. The number of cells in the G0/G1-, S— and G2/M-phase was then measured with regards to the amount of PDC used.

U2932 cells [5] = conditions: 10, 20, 40, 100 nM, 24-96 h
Procedure: (§1) Two cell lines were selected for the respective experiments. The B-cell lymphoma cell line U2932 and the higher CXCR4 expressing lymphoblast-like Raji cell line. Both cell lines were incubated with the PDC for 24, 48, 72 and 96 hours in varying concentrations of 0 (Blank), 10, 20, 40 and 100 nM.

[6] = Biodistribution in Jurkat tumor-bearing CB-17 SCID mice; type: in vivo; conditions: female, CB-17 SCID, mouse, in vivo, iv, total radioactivity, 1 h p.i., Jurkat xenograft, CB-17 SCID female mice
Summary of the method: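 Radioligand (125I, 177Lu, 99mTc, 18F or 68Ga label; roughly 0.5-20 MBq, 0.02-0.20 nmol) was injected intravenously via tail vein. Hosts were CB17-SCID mice with subcutaneous Jurkat tumors of 5-8 mm, 4-10 weeks post-inoculation. Dissected organs were weighed and counted in a γ-counter.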

[7] = Procedure: The radiosynthesis of [^99mTc]CXCR4-Tc-14 was performed manually, as described in chapter 4.2.3 above. Images were acquired after injection of 430-604 MBq of [^99mTc]CXCR4-Tc-14 at 5 min to 21 h p.i. Details of the scanning procedure are set out below.
Clinical evaluation of [^99mTc]CXCR4-Tc-14 in patients was conducted under compassionate use in compliance with the German Medicinal Products Act, AMG § 13 2b, and in accordance with the responsible authorities (Government of Oberbayern). First proof-of-concept studies were performed at the Universitätsklinikum Augsburg (Augsburg, Germany).
All subjects were examined on a Discovery MN CT 670 Pro equipped with an Optima 540 CT (GE Healthcare, Solingen, Germany). Full-body SPECT/CT scans at 5 and 60 min after tracer injection were acquired with a scanning speed of 30 cm/min, scans at 120 and 300 min were acquired with a scanning speed of 12 cm/min and scans at 21 h were acquired with a scanning speed of 5 cm/min. The scans were obtained in 60 subsets using the double-head technology in matrices of 128×128 (zoom 1). SPECT scans at 60 and 180 min after tracer injection were acquired with an exposure time of 8 sec per subset and scans at 21 h were acquired with an exposure time of 16 sec per subset. Emission data were smoothed applying a Butterworthfilter (0.48) and reconstructed iteratively by an ordered-subsets expectation maximization algorithm (2 iterations, 10 subsets). Images were obtained after injection of 430-604 MBq of [^99mTc]CXCR4-Tc-14 at 5 min to 21 h p.i.
The specific and effective doses in selected organs were analyzed. For calculation of the doses, voxels of interest were defined around areas with increased uptake in full-body images. Time-activity curves for the respective organs were automatically determined and the residence time of the tracer calculated using the specific calibration of the SPECT camera and a standard activity value. The residence time was used as the input data for the Olinda/EXM software. The output of this calculation was referred to the dosimetry guideline of the International Commission on Radiological Protection.

CXCR4 [8] = target: T1, CXCR4; assay: Determination of inverse IC50 (invIC50): radiolabeled peptide displaced by Fc-131 on Jurkat cells; conditions: read-out: invIC50; radiolabeled compound displaced by Fc-131, Jurkat cells
Procedure: For in vitro experiments, cells were counted in a hemocytometer using trypan blue as contrast agent. The cell suspension was centrifuged, and the pellet resuspended in HBSS (+1 wt % BSA) to a concentration of 2 mio cells/mL. 8×3 polystyrene tubes were loaded with 25 μL of the standard ligand ^125I-Fc-131 (see 4.1, 1.00 nM in HBSS) and 25 μL of the ligand to investigate in the respective concentration (10^−4-10^−10 M, n=3 for each concentration). 200 μL of cell suspension (400.000 cells per well) were added to obtain a final peptide concentration range of 10^−5-10^−11 M. The tubes were cooled for 2 h at 8° C. to prevent internalization. The experiment was stopped by removal of the supernatant. 200 μL HBSS were added onto the cells, the suspension centrifuged, and the supernatant pooled with the respective first fractions. This step was repeated once more before the tubes containing the supernatants and the ones containing the cell pellets were subjected to activity measurement in the γ-counter.
For the determination of inverse IC50 (invIC50) values the protocol for the determination of regular IC50 values was resumed with minor changes. The peptide under investigation was radioactively labeled and a stock solution was prepared in HBSS (2.00 nM). A concentration gradient of the standard ligand Fc-131 was prepared in HBSS (10^−4-10^−10 M). A cell tube was then containing 25 μL of the radioactive peptide solution, 25 μL of the respective Fc-131 solution and 200 μL cell suspension (400.000 cells). The experiment was conducted as described above.

[9] = patient, multiple myeloma, 604 MBq

T1 sequence (P61073 whole entry): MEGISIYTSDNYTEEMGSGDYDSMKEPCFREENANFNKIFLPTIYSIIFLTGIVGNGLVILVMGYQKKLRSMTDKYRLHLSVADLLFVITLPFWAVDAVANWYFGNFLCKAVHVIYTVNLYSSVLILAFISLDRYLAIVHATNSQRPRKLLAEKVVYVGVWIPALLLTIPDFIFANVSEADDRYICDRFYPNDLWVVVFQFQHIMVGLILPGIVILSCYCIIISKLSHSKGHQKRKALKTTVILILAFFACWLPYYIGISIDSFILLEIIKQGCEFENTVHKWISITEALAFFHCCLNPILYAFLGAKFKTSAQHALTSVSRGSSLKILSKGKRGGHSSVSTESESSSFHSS
Procedure for Raji cells: as §1

CC[C@H](C)[C@@H]([C@@H](CC(=O)N1CCC[C@H]1[C@H](OC)[C@@H](C)C(=O)N[C@H](C)C(O)c1ccccc1)OC)N(C)C(=O)[C@@H](NC(=O)[C@H](C(C)C)N(C)C(=O)OCc1ccc(NC(=O)[C@H](CCCNC(N)=O)NC(=O)[C@@H](NC(=O)CCCCCN2C(=O)CC(SCC[C@@H](N)C(=O)NC(CCCNC(=N)N)C(=O)N[C@H](C)C(=O)Nc3ccc(C(=O)NCCC[C@@H]4C(=O)N[C@@H](CCCNC(=N)N)C(=O)N[C@H](Cc5ccc6ccccc6c5)C(=O)NCC(=O)N[C@@H](Cc5ccc(O)cc5)C(=O)N4C)cc3)C2=O)C(C)C)cc1)C(C)C (stereo partly drawn) [CXCR4-MMAE-2]
fraction of dead cells (Raji cells; 96 h, 10, 20 and 40 nM, Raji vs U2932): considerably higher fraction of dead Raji cells compared to the U2932 cells
cell viability (Raji cells; Raji cells, 10, 20, 40, 100 nM, 24-96 h): decreased cell viabilities
Internalization 2 h [% of bound peptide] ([1]; 2 h, 125I-labeled): 27.9 ± 1.14 % of bound peptide
IC50 (CXCR4 [2]): 42.6 ± 8.3 nM
logD7.4 [3]: 1.11 ± 0.08 (5)
cells in G2/M-phase (U2932 cells [4]): higher number of cells stuck in the G2/M-phase
cell viability (U2932 cells [5]): decreased cell viabilities

C[C@@H](NC(=O)[C@@H](CCCNC(=N)N)NC(=O)[C@@H](CN)NC(=O)C(CNCCN)CNCCN)C(=O)Nc1ccc(C(=O)NCCC[C@@H]2C(=O)N[C@@H](CCCNC(=N)N)C(=O)N[C@@H](Cc3ccc4ccccc4c3)C(=O)NCC(=O)N[C@H](Cc3ccc(O)cc3)C(=O)N2C)cc1 [Tc-CXCR4-14] (cyclo([dY][dNMeOrn]([4Abz-dA-dR-dDap-X1])R[2Nal]G))
tissue uptake at 1 h ([6]; Blood, read-out: % iD/g Blood): 1.62 %ID/g
tissue uptake at 1 h ([6]; Bone, read-out: % iD/g Bone): 1.31 %ID/g
tissue uptake at 1 h ([6]; Heart, read-out: % iD/g Heart): 1.21 %ID/g
tissue uptake at 1 h ([6]; Intestine, read-out: % iD/g Intestine): 0.92 %ID/g
tissue uptake at 1 h ([6]; Liver, read-out: % iD/g Liver): 7.67 %ID/g
tissue uptake at 1 h ([6]; Lung, read-out: % iD/g Lung): 3.99 %ID/g
tissue uptake at 1 h ([6]; Pancreas, read-out: % iD/g Pancreas): 0.56 %ID/g
tissue uptake at 1 h ([6]; Stomach, read-out: % iD/g Stomach): 1.97 %ID/g
tissue uptake at 1 h ([6]; Tumor, read-out: % iD/g Tumor): 8.63 %ID/g
Internalized in relation to 125I-Fc-131 [%] ([1]; 10 min): 486 ± 18.9%
Cell-bound [%] ([1]; 10 min): 0.67 ± 0.14%
Internalized [%] ([1]; 10 min): 17.9 ± 0.59%
Internalized in relation to 125I-Fc-131 [%] ([1]; 30 min): 683 ± 51.3%
Cell-bound [%] ([1]; 30 min): 1.56 ± 0.41%
Internalized [%] ([1]; 30 min): 30.2 ± 0.74%
Internalized in relation to 125I-Fc-131 [%] ([1]; 60 min): 742 ± 45.2%
Cell-bound [%] ([1]; 60 min): 0.91 ± 0.14%
Internalized [%] ([1]; 60 min): 36.4 ± 0.20%
Internalization [% Fc-131] ([1]; 120 min): 666 (120 min) % Fc-131
Internalized in relation to 125I-Fc-131 [%] ([1]; 120 min): 694 ± 42.5%
Cell-bound [%] ([1]; 120 min): 1.11 ± 0.48%
Internalized [%] ([1]; 120 min): 37.9 ± 0.56%
Internalization (in % of 125I-FC-131) ([1]; time not given): 742%
logD7.4 ([3]; listed as [^99mTc]CXCR4-Tc-14): −1.75
delivered whole-body dose ([7]; 604 MBq injected): 3.8 mSv
whole-body effective dose ([7]; patient, multiple myeloma): 6.3 μSv/MBq
specific dose, kidneys [7, 9]: 10 μGy/MBq
specific dose, liver [7, 9]: 14 μGy/MBq
specific dose, osteogenic cells [7, 9]: 13 μGy/MBq
specific dose, red bone marrow [7, 9]: 11 μGy/MBq
specific dose, spleen [7, 9]: 47 μGy/MBq
IC50 (CXCR4 [8]): 10.2 nM

Reference: US20250288704A1, “CXCR4-LIGANDS FOR DIAGNOSTIC AND THERAPEUTIC USE AND PRECURSORS THEREOF” (priority 2021, published 2025)
